Measured values reported in patent publication US20240208915A1, “A SOLID STATE FORM OF TAFAMIDIS AND A PROCESS FOR ITS PREPARATION” (Quimica Sintetica, S.A., priority 2021, published 2024).
Read-outs that look alike come from different tables or passages of the source.

Legend:
[1] = cited from earlier work
[2] = XRPD pattern after keeping at storage condition in a close vial; format: physicochemical; conditions: storage condition (room temperature, RH not more than 80%)
Description: (§1) The instruments and methods used to characterize the crystals obtained in the examples are as follows: • X-ray powder diffraction analyses (XRPD) were performed on a Bruker D8 Advance X-ray powder diffractometer at about 25° C. and ambient humidity (e.g. 25-35%), using a Cu Kα tube (40 kV, 40 mA, λ=1.5418 Å) as the X-ray source, equipped with a linear Lynxeye XE-T position sensitive detector set at 250 mm from the sample. A Nickel filter (0.0125 mm thickness) was mounted on the primary beam. Data collection was made in coupled mode, theta-theta configuration over an angular range between at least 3° 2 theta and 40° 2theta and a scan step of 0.02°. Fine powder samples were placed in a flat, thin layer in the 12 mm×0.2 mm cavity of a silicon low background plate fixed on a sample holder fitting an autosampler position. The instrument was previously calibrated by means of NIST SRM 1976b. Data acquisition was performed by means of Bruker Diffraction Measurement Center software; data elaboration was performed by means of Crystal Impact Match! or Bruker Diffrac. EVA software.

[3] = Chemical and physical stability over storage (summary statements)
Description: “Storage condition” referred to 2-(3,5-dichlorophenyl)-1,3-benzoxazole-6-carboxylic acid and its salt means that all the forms are stored in a close vessel at room temperature, ambient pressure and at relative humidity (RH) degree not more than 80%.

[4] = Stability studies: XRPD to evaluate any change in crystalline form; format: physicochemical
Description: as §1
(§2) Vials containing 100 mg each of alpha form of present invention are stored at the following conditions, wherein RH is referred to relative humidity: • room Temperature (RT) and 80% RH, open vial • 40° C. and 75% RH, open vial
(§3) The sample were analysed before the storage (initial data), 8 days, 15 days and 4 weeks using X-ray powder diffractogram (XRPD) to evaluate any change in crystalline form and using HPLC to measure the chemical purity.
(§4) 700 mg of tafamidis form 4 of obtained according to present invention are stored at the following conditions, wherein RH is referred to relative humidity: • 40° C. and 75% RH, type A container.
(§5) The samples were analysed before the storage (initial data), after 1 month, 3 months, 6 months using X-ray powder diffractogram (XRPD) to evaluate any change in crystalline form and using HPLC to measure the chemical purity.

[5] = Stability studies: HPLC to measure the chemical purity; format: physicochemical
Description: as §2, §3, §4, §5

In the case of `O=C(O)c1ccc2nc(-c3cc(Cl)cc(Cl)c3)oc2c1` [form I, 2-(3,5-dichlorophenyl)-1,3-benzoxazole-6-carboxylic acid], the “solid form conversion upon drying” value ([1]; vacuum dryer at 100-160° C. (WO 2020/232325, examples 16 to 20)) is listed as “convert into form 4”.

In the case of `O=C(O)c1ccc2nc(-c3cc(Cl)cc(Cl)c3)oc2c1` [form 1, 2-(3,5-dichlorophenyl)-1,3-benzoxazole-6-carboxylic acid], the “change of XRPD pattern” value ([2]; 8 months) is listed as “does not change its XRPD pattern”, the “thermodynamic stability of the form” value ([1]; room temperature) is listed as “thermodynamically stable form” and the “chemical and physical stability (XRPD pattern, degradation)” value ([3]; kept at storage condition) is listed as “chemically and physically stable”.

In the case of `O=C(O)c1ccc2nc(-c3cc(Cl)cc(Cl)c3)oc2c1` [form 4, 2-(3,5-dichlorophenyl)-1,3-benzoxazole-6-carboxylic acid], the “change of XRPD pattern” value ([2]; 10 months) is given as “does not change its XRPD pattern”, the “transformation into a different crystalline form (XRPD)” value ([4]; 40° C., 75% RH, type A container, after 6 months) is given as “no signs of transformation into a different crystalline form” and the “thermodynamic stability of the form” value ([1]; high temperature) is given as “more stable”. The “chemical and physical stability” value ([3]; stored for several months at 40° C. and 75% RH) was “chemically and physically stable”.

With `O=C(O)c1ccc2nc(-c3cc(Cl)cc(Cl)c3)oc2c1` [form alpha, 2-(3,5-dichlorophenyl)-1,3-benzoxazole-6-carboxylic acid] the “transformation into a different crystalline form (XRPD)” value ([4]; 40° C., 75% RH, open vial, after 4 weeks) was “no signs of transformation”, the “transformation into a different crystalline form (XRPD)” value ([4]; room temperature, 80% RH, open vial, after 4 weeks) was “no signs of transformation” and the “chemical purity by HPLC versus initial profile” value ([5]; 40° C., 75% RH, open vial, up to 4 weeks) was “does not present a significant worsening of the purity”. The “chemical purity by HPLC versus initial profile” value ([5]; 40° C., 75% RH, type A container, up to 6 months) was “does not present a significant worsening of the purity”, the “chemical purity by HPLC versus initial profile” value ([5]; room temperature, 80% RH, open vial, up to 4 weeks) was “does not present a significant worsening of the purity” and the “chemical and physical stability (polymorphic form, chemical purity)” value ([3]; storage between 15 to 60° C. for several weeks at different degree of humidity) was “chemically and physically stable”.

In the case of `O=C(O)c1ccc2nc(-c3cc(Cl)cc(Cl)c3)oc2c1` [amorphous, 2-(3,5-dichlorophenyl)-1,3-benzoxazole-6-carboxylic acid], the “solid form conversion upon storage” value ([1]; 1 week at 70° C. and 75% relative humidity) is listed as “converts into crystalline form 4”.
